From US9434711B2 (Janssen Pharmaceutica, NV, priority 2007, dated 2016) come the findings set out here.

In the assay the target is canine TRPM8 (Canis lupus familiaris, UniProt Q1A7N1). Briefly: In Vitro Canine TRPM8 Functional Assay (Ca2+ fluorescence, icilin activation). The settings on record: for IC50: read-out: IC50; for inhibition at 0.2 µM: read-out: % Inh @ 0.2; for inhibition at 0.5 µM: read-out: % Inh @ 0.5. It is filed as cell-based. In a few lines:
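Eight-point dose-response curves in quadruplicate gave EC50 or IC50 values from a Ca2+-sensitive dye assay in HEK293 cells stably carrying canine TRPM8. Icilin, dosed near its 80% maximal level, followed a 5 min compound exposure.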

The mark [1] stands for this setting: HEK293 cells stably expressing canine TRPM8, icilin activation, eight-point dose-response.
The mark [2] stands for this setting: compound at 0.2 μM, canine TRPM8, icilin activation.
The mark [3] stands for this setting: compound at 0.5 μM, canine TRPM8, icilin activation.

Like-named read-outs stand apart in the source and are kept apart here.

Chain of canine TRPM8 (Q1A7N1 1-1104): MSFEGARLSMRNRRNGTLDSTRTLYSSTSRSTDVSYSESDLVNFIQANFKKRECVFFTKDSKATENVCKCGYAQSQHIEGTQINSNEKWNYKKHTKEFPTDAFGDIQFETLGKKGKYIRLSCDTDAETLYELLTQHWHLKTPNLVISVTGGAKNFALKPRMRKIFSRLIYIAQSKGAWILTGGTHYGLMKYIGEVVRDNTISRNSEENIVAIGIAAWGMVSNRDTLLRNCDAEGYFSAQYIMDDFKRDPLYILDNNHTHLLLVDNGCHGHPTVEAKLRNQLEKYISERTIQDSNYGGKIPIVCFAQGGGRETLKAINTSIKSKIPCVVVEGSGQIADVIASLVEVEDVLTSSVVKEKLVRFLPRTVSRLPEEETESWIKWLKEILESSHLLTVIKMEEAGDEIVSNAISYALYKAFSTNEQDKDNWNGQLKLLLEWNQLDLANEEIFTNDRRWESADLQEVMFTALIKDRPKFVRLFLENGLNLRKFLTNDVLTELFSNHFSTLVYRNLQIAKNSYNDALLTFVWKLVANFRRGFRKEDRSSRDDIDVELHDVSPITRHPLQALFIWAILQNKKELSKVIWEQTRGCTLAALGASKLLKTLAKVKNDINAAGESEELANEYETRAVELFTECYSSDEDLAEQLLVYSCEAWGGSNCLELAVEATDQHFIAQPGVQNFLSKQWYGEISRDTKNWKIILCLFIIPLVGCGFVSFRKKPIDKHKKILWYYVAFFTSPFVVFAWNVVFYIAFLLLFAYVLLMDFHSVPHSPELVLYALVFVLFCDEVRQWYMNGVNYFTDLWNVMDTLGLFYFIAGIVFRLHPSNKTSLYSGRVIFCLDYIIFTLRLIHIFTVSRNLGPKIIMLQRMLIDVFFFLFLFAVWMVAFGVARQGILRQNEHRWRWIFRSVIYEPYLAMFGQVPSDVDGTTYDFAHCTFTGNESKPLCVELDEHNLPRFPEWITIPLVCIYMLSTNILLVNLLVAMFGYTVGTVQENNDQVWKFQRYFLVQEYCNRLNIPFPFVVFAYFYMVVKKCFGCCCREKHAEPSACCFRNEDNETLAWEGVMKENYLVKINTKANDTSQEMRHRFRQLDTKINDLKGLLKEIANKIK

Consider `CN(C)c1ccc(S(=O)(=O)N(CCC2CC2)c2cc3ccccc3s2)cc1` [Compound 689, N-(Benzo[b]thiophen-2-yl)-N-(2-cyclopropyl-ethyl)-4-dimethylamino-benzenesulfonamide], for which, under setting [1], the half-inhibitory concentration (IC50) (usually the concentration at which inhibition is half-maximal) was found to be 52.8 nM. Moreover, the inhibition at 0.2 µM under setting [2] is 86%.
On to `O=S(=O)(c1ccc(-c2nnn[nH]2)cc1)N(CCC1CC1)c1sc2ccccc2c1Br` [Compound 594, N-(3-Bromo-benzo[b]thiophen-2-yl)-N-(2-cyclopropyl-ethyl)-4-(1H-tetrazol-5-yl)-benzenesulfonamide], for which the inhibition at 0.2 µM under setting [2] was 101%.
On to `Cc1c(N(CCC2CC2)S(=O)(=O)c2ccccc2)sc2ccccc12` [Compound 614, N-(2-Cyclopropyl-ethyl)-N-(3-methyl-benzo[b]thiophen-2-yl)-benzenesulfonamide], for which the IC50 under setting [1] is 7.4 nM. In addition, the inhibition at 0.2 µM under setting [2] came to 101%.
In the case of `O=S(=O)(c1ccccc1)N(Cc1cccc2cccnc12)c1sc2ccccc2c1Cl` [Compound 5, N-(3-Chloro-benzo[b]thiophen-2-yl)-N-quinolin-8-ylmethyl-benzenesulfonamide], under setting [1], the IC50 turned out to be 63 nM. For the same compound, the inhibition at 0.5 µM under setting [3] was determined as 97%.
The like results for `CN(C)CCN(c1sc2ccccc2c1Cl)S(=O)(=O)c1ccccc1` [Compound 87, N-(3-Chloro-benzo[b]thiophen-2-yl)-N-(2-dimethylamino-ethyl)-benzenesulfonamide] were, in that order, 170 nM and 94%.
For `CCCS(=O)(=O)N(Cc1ccc(F)c(F)c1)c1sc2ccccc2c1Br` [Compound 153, N-(3-Bromo-benzo[b]thiophen-2-yl)-N-(3,4-difluoro-benzyl)-propane-1-sulfonamide], the IC50 under setting [1] turned out to be 18.8 nM. For the same compound, the inhibition at 0.5 µM under setting [3] was 97%.
For `O=C(O)c1ccc(S(=O)(=O)N(CC2CCOCC2)c2sc3ccccc3c2Br)cc1` [Compound 440, N-(3-Bromo-benzo[b]thiophen-2-yl)-N-((tetrahydro-2H-pyran-4-yl)methyl)-4-carboxy-benzenesulfonamide], the IC50 under setting [1] turned out to be 14 nM. In addition, under setting [2], the inhibition at 0.2 µM amounted to 84%.
For `Cc1c(N(CCC2CC2)S(=O)(=O)c2ccc(N3CCSCC3)cc2)sc2ccccc12` [Compound 740, N-(3-Methyl-benzo[b]thiophen-2-yl)-N-(cyclopropyl-ethyl)-4-thiomorpholin-4-yl-benzenesulfonamide], under setting [2], the inhibition at 0.2 µM was determined as 57%.
As to `O=C1CCCN1CCN(c1sc2ccccc2c1Br)S(=O)(=O)c1ccccc1` [Compound 236, N-(3-Bromo-benzo[b]thiophen-2-yl)-N-[2-(2-oxo-pyrrolidin-1-yl)-ethyl]-benzenesulfonamide], under setting [3], the inhibition at 0.5 µM came out at 68%.
Consider `O=S(=O)(c1ccccc1)N(Cc1cccc(OC(F)(F)F)c1)c1sc2ccccc2c1Br` [Compound 173, N-(3-Bromo-benzo[b]thiophen-2-yl)-N-(3-trifluoromethoxy-benzyl)-benzenesulfonamide], for which the IC50 under setting [1] came out at 8.4 nM. In addition, under setting [3], the inhibition at 0.5 µM came to 99%.
Turning to `COc1cc(NS(C)(=O)=O)ccc1S(=O)(=O)N(Cc1ccc(F)c(C(F)(F)F)c1)c1sc2ccccc2c1Cl` [Compound 744, N-(3-Chloro-benzo[b]thiophen-2-yl)-N-(4-fluoro-3-trifluoromethyl-benzyl)-4-methanesulfonylamino-2-methoxy-benzenesulfonamide], the IC50 under setting [1] was 57.3 nM. In addition, the inhibition at 0.2 µM under setting [2] stood at 99%.
On to `COc1cc(CN(c2cc3ccccc3s2)S(=O)(=O)c2ccccc2)ccc1F` [Compound 60, N-(Benzo[b]thiophen-2-yl)-N-(4-fluoro-3-methoxy-benzyl)-benzenesulfonamide], for which the IC50 under setting [1] turned out to be 28.3 nM. The inhibition at 0.5 µM under setting [3] turned out to be 97%.
On the same counts, the results for `O=S(=O)(c1ccccc1)N(Cc1cccnc1)c1sc2ccccc2c1Br` [Compound 169, N-(3-Bromo-benzo[b]thiophen-2-yl)-N-(pyridin-3-ylmethyl)-benzenesulfonamide] are 21.4 nM and 98%.
For `CC(O)C1=C(N(Cc2ccc(F)c(F)c2)S(=O)(=O)c2ccccc2)S(=O)(=O)c2ccccc21` (stereo not shown) [Compound 464, N-(3,4-Difluoro-benzyl)-N-[3-(1-hydroxy-ethyl)-1,1-dioxo-benzo[b]thiophen-2-yl]-benzenesulfonamide], the half-inhibitory concentration (IC50) under setting [1] stood at 7 nM. Also, under setting [2], the inhibition at 0.2 µM came out at 102%.
Consider `CCS(=O)(=O)N(CCN1CCOCC1)c1sc2ccccc2c1C` [Compound 113, N-(3-Methyl-benzo[b]thiophen-2-yl)-N-(2-morpholin-4-yl-ethyl)-ethanesulfonamide], for which, under setting [2], the inhibition at 0.2 µM was 19%.
Regarding `CC(C)(O)c1c(N(Cc2ccc(F)c(Cl)c2)S(=O)(=O)c2ccc(Br)cc2)sc2ccccc12` [Compound 737, N-(3-Chloro-4-fluorobenzyl)-N-(3-(1-hydroxy-1-methyl-ethyl)-benzo[b]thiophen-2-yl)-4-bromo-benzenesulfonamide], under setting [1], the IC50 is 29.9 nM. Besides, under setting [2], the inhibition at 0.2 µM was found to be 101%.
The like results for `COC(=O)c1ccc(S(=O)(=O)N(CCCCC(F)(F)F)c2sc3ccccc3c2C)cc1` [Compound 631, N-(3-Methyl-benzo[b]thiophen-2-yl)-N-(5,5,5-trifluoro-pentyl)-4-carbomethoxy-benzenesulfonamide] were, in that order, 26.3 nM and 103%.
As to `Cc1c(N(Cc2ccc(F)c(C(F)(F)F)c2)S(=O)(=O)c2ccc3c(c2)CN(C)CC3)sc2ccccc12` [Compound 767, 2-Methyl-N-(4-fluoro-3-trifluoromethyl-benzyl)-N-(3-methyl-benzo[b]thiophen-2-yl)-1,2,3,4-tetrahydroisoquinolin-7-yl-sulfonamide], the IC50 under setting [1] is 89.2 nM. Moreover, the inhibition at 0.2 µM under setting [2] stood at 77%.
For the compound `CCS(=O)(=O)N(CCSC)c1sc2ccccc2c1C` [Compound 108, N-(3-Methyl-benzo[b]thiophen-2-yl)-N-(2-methylsulfanyl-ethyl)-ethanesulfonamide], the inhibition at 0.2 µM under setting [2] is 71%.
In the case of “N-(3-Methyl-benzo[b]thiophen-2-yl)-N-(4-fluoro-3-trifluoromethyl-benzyl)-4-pyrazol-1-yl-benzenesulfonamide [Compound 332]”, the IC50 under setting [1] came out at 7 nM. Further, the “% Inh @ 0.2 (μM)” value under setting [2] worked out at 100%.
As to `CCN(c1sc2ccccc2c1Br)S(=O)(=O)c1ccc(C(=O)O)cc1` [Compound 390, N-(3-Bromo-benzo[b]thiophen-2-yl)-N-(ethyl)-4-carboxy-benzenesulfonamide], under setting [2], the inhibition at 0.2 µM is 69%.
On to `Nc1ccc(S(=O)(=O)N(Cc2ccc(F)c(C(F)(F)F)c2)c2sc3ccccc3c2Br)cc1Br` [Compound 651, 4-Amino-3-bromo-N-(3-bromo-benzo[b]thiophen-2-yl)-N-(4-fluoro-3-trifluoromethyl-benzyl)-benzenesulfonamide], for which the IC50 under setting [1] is 6 nM. Also, the inhibition at 0.2 µM under setting [2] came out at 103%.
On the same counts, the results for `CCCCN(c1sc2ccccc2c1C(C)=O)S(=O)(=O)c1ccc(Br)cc1` [Compound 503, N-(3-Acetyl-benzo[b]thiophen-2-yl)-N-(butyl)-4-bromo-benzenesulfonamide] are 47 nM and 96%.
As for “N-(3-Bromo-thieno[3,2-b]pyridin-2-yl)-N-(3,4-difluoro-benzyl)-benzenesulfonamide and N-(3-chloro-thieno[3,2-b]pyridin-2-yl)-N-(3,4-difluoro-benzyl)-benzenesulfonamide [Compound 145]”, under setting [1], the IC50 was determined as 14.1 nM. The “% Inh @ 0.5 (μM)” value under setting [3] is reported as 100%.
In the case of `Cc1c(N(Cc2ccc(F)cc2)S(=O)(=O)c2ccc(F)c(F)c2)sc2ccccc12` [Compound 826, N-(4-Fluoro-benzyl)-N-(3-methyl-benzo[b]thiophen-2-yl)-3,4-difluoro-benzenesulfonamide], the inhibition at 0.2 µM (0.2 μM compound, HEK293 cells stably expressing canine TRPM8, icilin activation) was 97%. In addition, the IC50 (HEK293 cells stably expressing canine TRPM8, icilin activation, average of two or more determinations) was 24 nM.
With `Cc1c(N(Cc2ccc(F)c(C(F)(F)F)c2)S(=O)(=O)c2nc3ccccc3n2C)sc2ccccc12` [Compound 722, N-(3-Methyl-benzo[b]thiophen-2-yl)-N-(4-fluoro-3-trifluoromethyl-benzyl)-1-methyl-1H-benzimidazole-2-sulfonamide], under setting [2], the inhibition at 0.2 µM came out at 28%.
For `Cc1c(N(Cc2ccc(F)c(C(F)(F)F)c2)S(=O)(=O)c2ccc(-c3cc(C(F)(F)F)nn3C)s2)sc2ccccc12` [Compound 326, N-(3-Methyl-benzo[b]thiophen-2-yl)-N-(4-fluoro-3-trifluoromethyl-benzyl)-5-(2-methyl-5-trifluoromethyl-2H-pyrazol-3-yl)-thien-2-ylsulfonamide], the inhibition at 0.2 µM under setting [2] is 14%.
As for `O=C(O)c1ccc(S(=O)(=O)N(Cc2ccc(F)c(C(F)(F)F)c2)c2sc3ccccc3c2C2CC2)cc1` [Compound 675, N-(3-Cyclopropyl-benzo[b]thiophen-2-yl)-N-(4-fluoro-3-trifluoromethyl-benzyl)-4-carboxy-benzenesulfonamide], the IC50 under setting [1] is 2.4 nM. Further, the inhibition at 0.2 µM under setting [2] came to 100%.
On the same counts, the results for `Cc1c(N(Cc2ccc(F)c(C(F)(F)F)c2)S(=O)(=O)c2cccc(C#N)c2)sc2ccccc12` [Compound 546, N-(4-Fluoro-3-trifluoromethyl-benzyl)-N-(3-methyl-benzo[b]thiophen-2-yl)-3-cyano-benzenesulfonamide] are 68.3 nM and 85.7%.
On to `Cc1c(N(Cc2ccc(F)c(C(F)(F)F)c2)S(=O)(=O)c2cn(C)nc2C(F)(F)F)sc2ccccc12` [Compound 328, N-(3-Methyl-benzo[b]thiophen-2-yl)-N-(4-fluoro-3-trifluoromethyl-benzyl)-1-methyl-3-trifluoromethyl-1H-pyrazol-4-ylsulfonamide], for which the half-inhibitory concentration (IC50) under setting [1] amounted to 35 nM. Besides, the inhibition at 0.2 µM under setting [2] was 94%.
